Experimental data published in US20080213385A1, “Formulations for 7- (T-Butoxy) Iminomethyl Camptothecin” (priority 2005, published 2008).

How the values were obtained:
[1] = In vitro dissolution rate testing (USP2 apparatus, paddle); type: physicochemical; details: 50 rpm, 37° C., 0.3% SDS in 1,000 mL water
Procedure: The dissolution rate testing was done using an USP2 apparatus, paddle, 50 rpm, 37° C., 0.3% SDS in 1,000 mL water, n=3. For dissolution rate testing, the aqueous suspensions were diluted 1:5 with water and filled into vials (0.5 mg drug substance/vial).

[2] = Particle size distribution by laser light scattering; type: physicochemical; details: after milling (unmilled for unmilled drug)
Procedure: The aqueous nano-milling was performed in a ball mill using yittrium […] zirconia beads (0.5-0.6 mm in 0). For all trials the batch size was approximately 70 g. Prior to milling the beads were conditioned with 1% stabilizer solution for 24 hours at 1,200 rpm (minimal speed, 80 mL solution for 160 mL beads), rinsed with demineralized water until conductivity reading was the same as that of the water, placed in a 150-200° C. oven until dry and cooled to room temperature before use. Milling was performed at 3,200 rpm and milling times as outlined in Table 1 were used. Before and after milling the aqueous suspensions were characterized with respect to particle size distribution, appearance (microscopic pictures and laser light scattering), and dissolution rate and assay/degradation.

Question: Which “Dissolution rate: % released, mean (n = 3), after 15 min” value ([1]; 0.5 mg drug substance/vial, 15 min) does the source give for `CC[C@@]1(O)C(=O)OCc2c1cc1n(c2=O)Cc2c-1nc1ccccc1c2/C=N/OC(C)(C)C` [Unmilled drug, 7-t-butoxyiminomethylcamptothecin] here?
Answer: 3%

Question: And the “Dissolution rate: % released, mean (n = 3), after 30 min” value ([1]; 30 min)?
Answer: 5%

Question: And the “Dissolution rate: % released, mean (n = 3), after 60 min” value ([1]; 60 min)?
Answer: 15%

Question: And the “Dissolution rate: % released, mean (n = 3), after 120 min” value ([1]; 120 min)?
Answer: 31%

Question: And the “PSD (light scattering, after milling) x10” value [2]?
Answer: x10 = 2 μm

Question: And the “PSD (light scattering, after milling) x50” value [2]?
Answer: x50 = 9 μm

Question: What about the “PSD (light scattering, after milling) x90” value [2] of the same compound?
Answer: x90 = 35 μm
